According to ChEMBL document CHEMBL1629662, “Antimicrobial activity of prulifloxacin tested against a worldwide collection of gastroenteritis-producing pathogens, including those causing traveler's diarrhea” (2009):

Experiments:
[1] = test system: Vibrio alginolyticus; assay: Antibacterial activity against Vibrio alginolyticus assessed as percent susceptible isolates by broth microdilution method; assay type: functional
[2] = test system: Aeromonas sobria; assay: Antibacterial activity against Aeromonas sobria assessed as percent resistant isolates by broth microdilution method; assay type: functional
[3] = test system: Vibrio fluvialis; assay: Antibacterial activity against Vibrio fluvialis by broth microdilution method; assay type: functional
[4] = test system: Vibrio alginolyticus; assay: Antibacterial activity against Vibrio alginolyticus by broth microdilution method; assay type: functional
[5] = test system: Vibrio parahaemolyticus; assay: Antibacterial activity against Vibrio parahaemolyticus by broth microdilution method; assay type: functional
[6] = test system: Salmonella enteritidis; assay: Antibacterial activity against Salmonella enterica serovar Enteritidis by broth microdilution method; assay type: functional, Salmonella enterica subsp. enterica serovar Enteritidis
[7] = test system: Shigella boydii; assay: Antibacterial activity against Shigella boydii assessed as percent susceptible isolates by broth microdilution method; assay type: functional; conditions: pooled result: one value given for 3 cell lines, strains, targets or settings
[8] = test system: Aeromonas hydrophila; assay: Antibacterial activity against Aeromonas hydrophila by broth microdilution method; assay type: functional
[9] = test system: Plesiomonas shigelloides; assay: Antibacterial activity against Plesiomonas shigelloides assessed as percent resistant isolates by broth microdilution method; assay type: functional
[10] = test system: Salmonella enteritidis; assay: Antibacterial activity against Salmonella enterica serovar Enteritidis assessed as percent susceptible isolates by broth microdilution method; assay type: functional, Salmonella enterica subsp. enterica serovar Enteritidis; conditions: pooled result: one value given for 5 cell lines, strains, targets or settings
[11] = test system: Shigella boydii; assay: Antibacterial activity against Shigella boydii by broth microdilution method; assay type: functional
[12] = test system: Aeromonas sobria; assay: Antibacterial activity against Aeromonas sobria by broth microdilution method; assay type: functional
[13] = test system: Vibrio sp.; assay: Antibacterial activity against Vibrio sp. assessed as percent susceptible isolates by broth microdilution method; assay type: functional
[14] = test system: Vibrio fluvialis; assay: Antibacterial activity against Vibrio fluvialis assessed as percent susceptible isolates by broth microdilution method; assay type: functional
[15] = test system: Vibrio vulnificus; assay: Antibacterial activity against Vibrio vulnificus by broth microdilution method; assay type: functional
[16] = test system: Shigella sonnei; assay: Antibacterial activity against Shigella sonnei by broth microdilution method; assay type: functional
[17] = test system: Vibrio cholerae; assay: Antibacterial activity against Vibrio cholerae assessed as percent susceptible isolates by broth microdilution method; assay type: functional
[18] = test system: Yersinia enterocolitica; assay: Antibacterial activity against Yersinia enterocolitica assessed as percent susceptible isolates by broth microdilution method; assay type: functional
[19] = test system: Aeromonas veronii; assay: Antibacterial activity against Aeromonas veronii assessed as percent resistant isolates by broth microdilution method; assay type: functional
[20] = test system: Aeromonas caviae; assay: Antibacterial activity against Aeromonas caviae by broth microdilution method; assay type: functional
[21] = test system: Vibrio alginolyticus; assay: Antibacterial activity against Vibrio alginolyticus assessed as percent resistant isolates by broth microdilution method; assay type: functional
[22] = test system: Yersinia enterocolitica; assay: Antibacterial activity against Yersinia enterocolitica assessed as percent resistant isolates by broth microdilution method; assay type: functional
[23] = test system: Yersinia enterocolitica; assay: Antibacterial activity against Yersinia enterocolitica by broth microdilution method; assay type: functional
[24] = test system: Shigella flexneri; assay: Antibacterial activity against Shigella flexneri by broth microdilution method; assay type: functional
[25] = test system: Aeromonas caviae; assay: Antibacterial activity against Aeromonas caviae assessed as percent susceptible isolates by broth microdilution method; assay type: functional
[26] = test system: Vibrio parahaemolyticus; assay: Antibacterial activity against Vibrio parahaemolyticus assessed as percent susceptible isolates by broth microdilution method; assay type: functional
[27] = test system: Vibrio vulnificus; assay: Antibacterial activity against Vibrio vulnificus assessed as percent susceptible isolates by broth microdilution method; assay type: functional
[28] = test system: Vibrio vulnificus; assay: Antibacterial activity against Vibrio vulnificus assessed as percent resistant isolates by broth microdilution method; assay type: functional
[29] = test system: Vibrio cholerae; assay: Antibacterial activity against Vibrio cholerae assessed as percent resistant isolates by broth microdilution method; assay type: functional
[30] = test system: Vibrio parahaemolyticus; assay: Antibacterial activity against Vibrio parahaemolyticus assessed as percent resistant isolates by broth microdilution method; assay type: functional
[31] = test system: Aeromonas caviae; assay: Antibacterial activity against Aeromonas caviae assessed as percent resistant isolates by broth microdilution method; assay type: functional
[32] = test system: Yersinia pseudotuberculosis; assay: Antibacterial activity against Yersinia pseudotuberculosis by broth microdilution method; assay type: functional
[33] = test system: Shigella dysenteriae; assay: Antibacterial activity against Shigella dysenteriae by broth microdilution method; assay type: functional
[34] = test system: Salmonella typhimurium; assay: Antibacterial activity against Salmonella enterica serovar Typhimurium assessed as percent resistant isolates by broth microdilution method; assay type: functional, Salmonella enterica subsp. enterica serovar Typhimurium; conditions: pooled result: one value given for 8 cell lines, strains, targets or settings
[35] = test system: Aeromonas hydrophila; assay: Antibacterial activity against Aeromonas hydrophila assessed as percent susceptible isolates by broth microdilution method; assay type: functional
[36] = test system: Vibrio sp.; assay: Antibacterial activity against Vibrio sp. assessed as percent resistant isolates by broth microdilution method; assay type: functional
[37] = test system: Escherichia coli; assay: Antibacterial activity against Escherichia coli by broth microdilution method; assay type: functional
[38] = test system: Aeromonas hydrophila; assay: Antibacterial activity against Aeromonas hydrophila assessed as percent resistant isolates by broth microdilution method; assay type: functional
[39] = test system: Campylobacter coli; assay: Antibacterial activity against Campylobacter coli by broth microdilution method; assay type: functional
[40] = test system: Aeromonas sobria; assay: Antibacterial activity against Aeromonas sobria assessed as percent susceptible isolates by broth microdilution method; assay type: functional
[41] = test system: Escherichia coli; assay: Antibacterial activity against Escherichia coli assessed as percent susceptible isolates by broth microdilution method; assay type: functional
[42] = test system: Campylobacter jejuni; assay: Antibacterial activity against Campylobacter jejuni by broth microdilution method; assay type: functional
[43] = test system: Campylobacter jejuni; assay: Antibacterial activity against Campylobacter jejuni assessed as percent susceptible isolates by broth microdilution method; assay type: functional; conditions: pooled result: one value given for 2 cell lines, strains, targets or settings
[44] = test system: Vibrio fluvialis; assay: Antibacterial activity against Vibrio fluvialis assessed as percent resistant isolates by broth microdilution method; assay type: functional
[45] = test system: Vibrio cholerae; assay: Antibacterial activity against Vibrio cholerae by broth microdilution method; assay type: functional
[46] = test system: Vibrio sp.; assay: Antibacterial activity against Vibrio sp. by broth microdilution method; assay type: functional
[47] = test system: Aeromonas veronii; assay: Antibacterial activity against Aeromonas veronii by broth microdilution method; assay type: functional
[48] = test system: Shigella sonnei; assay: Antibacterial activity against Shigella sonnei assessed as percent resistant isolates by broth microdilution method; assay type: functional; conditions: pooled result: one value given for 4 cell lines, strains, targets or settings
[49] = test system: Escherichia coli; assay: Antibacterial activity against Escherichia coli assessed as percent resistant isolates by broth microdilution method; assay type: functional
[50] = test system: Salmonella typhimurium; assay: Antibacterial activity against Salmonella enterica serovar Typhimurium by broth microdilution method; assay type: functional, Salmonella enterica subsp. enterica serovar Typhimurium
[51] = test system: Plesiomonas shigelloides; assay: Antibacterial activity against Plesiomonas shigelloides assessed as percent susceptible isolates by broth microdilution method; assay type: functional
[52] = test system: Campylobacter jejuni; assay: Antibacterial activity against Campylobacter jejuni assessed as percent resistant isolates by broth microdilution method; assay type: functional; conditions: pooled result: one value given for 2 cell lines, strains, targets or settings
[53] = test system: Plesiomonas shigelloides; assay: Antibacterial activity against Plesiomonas shigelloides by broth microdilution method; assay type: functional
[54] = test system: Aeromonas veronii; assay: Antibacterial activity against Aeromonas veronii assessed as percent susceptible isolates by broth microdilution method; assay type: functional

SMILES: C[C@H]1c2cccc(O)c2C(=O)C2=C(O)[C@]3(O)C(=O)C(C(N)=O)=C(O)[C@@H](N(C)C)[C@@H]3[C@@H](O)[C@@H]21.O [DOXYCYCLINE]
- Activity [1]: 100%
- Activity [2]: 0%
- MIC [3]: ≤ 0.12 µg/mL
- MIC50 [3]: ≤ 0.12 µg/mL
- MIC90 [3]: ≤ 0.12 µg/mL
- MIC [4]: ≤ 0.12 µg/mL
- MIC50 [4]: ≤ 0.12 µg/mL
- MIC90 [4]: ≤ 0.12 µg/mL
- MIC [5]: ≤ 0.12 µg/mL
- MIC50 [5]: ≤ 0.12 µg/mL
- MIC90 [5]: ≤ 0.12 µg/mL
- MIC50 [6]: 2 µg/mL
- MIC90 [6]: 32 µg/mL
- Activity [7]: 34.7%
- MIC50 [8]: 0.5 µg/mL
- MIC90 [8]: 1 µg/mL
- Activity [9]: 0%
- Activity [10]: 82.2%
- MIC50 [11]: 16 µg/mL
- MIC90 [11]: 32 µg/mL
- MIC50 [12]: 0.5 µg/mL
- MIC90 [12]: 1 µg/mL
- Activity [13]: 100%
- Activity [14]: 100%
- MIC [15]: ≤ 0.12 µg/mL
- MIC50 [15]: ≤ 0.12 µg/mL
- MIC90 [15]: ≤ 0.12 µg/mL
- MIC50 [16]: 16 µg/mL
- MIC90 [16]: 32 µg/mL
- Activity [17]: 100%
- Activity [18]: 95.7%
- Activity [19]: 0%
- MIC50 [20]: 0.5 µg/mL
- MIC90 [20]: 1 µg/mL
- Activity [21]: 0%
- Activity [22]: 4.3%
- MIC50 [23]: 1 µg/mL
- MIC90 [23]: 2 µg/mL
- MIC50 [24]: 16 µg/mL
- MIC90 [24]: 32 µg/mL
- Activity [25]: 100%
- Activity [26]: 100%
- Activity [27]: 100%
- Activity [28]: 0%
- Activity [29]: 0%
- Activity [30]: 0%
- Activity [31]: 0%
- MIC50 [32]: 1 µg/mL
- MIC90 [32]: 2 µg/mL
- MIC50 [33]: 16 µg/mL
- MIC90 [33]: 32 µg/mL
- Activity [34]: 13.9%
- Activity [35]: 100%
- Activity [36]: 0%
- MIC50 [37]: 2 µg/mL
- MIC90 [37]: 16 µg/mL
- Activity [38]: 0%
- MIC [39]: ≤ 0.12 µg/mL
- MIC50 [39]: ≤ 0.12 µg/mL
- MIC90 [39]: 16 µg/mL
- Activity [40]: 100%
- Activity [41]: 76%
- MIC [42]: ≤ 0.12 µg/mL
- MIC50 [42]: ≤ 0.12 µg/mL
- MIC90 [42]: 16 µg/mL
- Activity [43]: 59.6%
- Activity [44]: 0%
- MIC [45]: ≤ 0.12 µg/mL
- MIC50 [45]: ≤ 0.12 µg/mL
- MIC90 [45]: ≤ 0.12 µg/mL
- MIC [46]: ≤ 0.12 µg/mL
- MIC50 [46]: ≤ 0.12 µg/mL
- MIC90 [46]: ≤ 0.12 µg/mL
- MIC50 [47]: 0.5 µg/mL
- MIC90 [47]: 1 µg/mL
- Activity [48]: 52.5%
- Activity [49]: 16%
- MIC50 [50]: 2 µg/mL
- MIC90 [50]: 32 µg/mL
- Activity [51]: 100%
- Activity [52]: 33.9%
- MIC [53]: ≤ 0.12 µg/mL
- MIC50 [53]: ≤ 0.12 µg/mL
- Activity [54]: 100%
